Results published in US8742068B2, “Treatment and prevention of inflammatory diseases and autoimmune diseases” (Universiteit Utrecht Holding B.V., priority 2007, dated 2014).
Entries after “also recorded” stand apart in the source; their conditions may differ.

Legend:
[1] = test system: primed spleen and draining lymph node cells; experiment: Peptide pool immunization, in vitro re-stimulation with individual peptides (T-cell proliferation, cytokine production, cross reactivity); type: cell-based, Balb/c mice
Source text: To define the epitopes more precisely, we divided the 13 peptides, based on the degree of sequence identity between bacterial and the homologous mouse Hsp70s, in three pools (pool A: non-conserved peptides, pool B: conserved peptides comprising at least about 80% amino acid identity to the mouse homologue, and pool C: highly conserved peptides comprising >86% amino acid identity to the mouse homologue, see below) and immunized 10-12 weeks old Balb/c mice twice with a 2 week interval (intraperitoneally and subcutaneously) with the peptide pools. 10 days after the second immunization primed spleen and draining lymph node cells were re-stimulated in vitro with all the 13 individual peptides after which we measured T-cell proliferation (tritium incorporation), IFNγ, IL10, IL4 and IL5 production (cytokine production).
Cross reactivity was determined with the corresponding mouse homologue peptides.

[2] = test system: proteoglycan induced arthritis; experiment: Proteoglycan induced arthritis (PGIA), intranasal pre-treatment; type: in vivo, Balb/c mice; conditions: control pOva
Source text: The proteoglycan induced arthritis model (PGIA) is a murine model of rheumatoid arthritis and is described to be a T-cell dependent and antibody mediated model. In the model arthritis is induced by two times injection of human proteoglycan (hPG) in a synthetic adjuvant dimethyldioctadecylammonium (DDA), see Hanyecz A. et al., Achievement of a synergistic adjuvant effect on arthritis induction by activation of innate immunity and forcing the immune response toward the Th1 phenotype. Arthritis Rheum. 2004 50(5):1665-76.
Because arthritis is induced by immunization with a synthetic adjuvant, instead of complete Freund's adjuvant (CFA), the role of interfering immune responses, induced by microbial Hsp's present in CFA, can be excluded. Due to cross reactive responses, between the human and the mouse (self) PG, a chronic and relapsing arthritis develops. After disease development, arthritis severity is scored by clinical assessment of thickness, redness and deformation of the joints on a scale of 1-4 per paw.
Ten female Balb/c mice, retired breeders obtained from Charles River, were randomly divided in two groups. To evaluate the effect of intra nasal treatment with Mycobacterial HSP70 (SEQ ID NO: 55) on PGIA 30 μg Hsp70 in 10 μl PBS was administered on day −7, −5 and −3 before disease induction. PGIA was induced by two times i.p. injection with 400 μg hPG and 2 mg DDA in 200 μl PBS. Subsequently developed arthritis scores were assessed by clinical evaluation as described in Example 7.
Fifteen female Balb/c mice, retired breeders obtained from Charles River, were randomly divided in three groups (five mice per group). To evaluate the effect of intranasal treatment with Hsp70-derived peptides “B1” (SEQ ID NO: 1) and a mixture of C1 (SEQ ID NO: 3) and mC1a (SEQ ID NO: 4) (designated herein as “C1mix”) on PGIA 100 μg peptide in 10 μl PBS was administered on day −7, −5 and −3 before disease induction. Ovalbumin peptide 323-339 (pOva) was used as a control peptide. PGIA was induced by two times i.p. injection with 400 μg hPG and 2 mg DDA in 200 μl PBS. Subsequently developed arthritis scores were assessed by clinical evaluation.
Twelve female Balb/c mice, retired breeders obtained from Charles River, were randomly divided in two groups (six mice per group). To evaluate the effect of intra nasal treatment with Hsp70 derived mC1 a on PGIA 100 μg peptide in 10 μl PBS was administered on day −14, −11, −7 and −4 before disease induction. Ovalbumin peptide (pOva) was used as a control peptide. PGIA was induced by two times i.p. injection with 400 μg hPG and 2 mg DDA in 200 μl PBS. Subsequently developed arthritis scores were assessed by clinical evaluation.
Eighteen female Balb/c mice, retired breeders obtained from Charles River, were randomly divided in three groups (six mice per group). To evaluate the effect of intranasal (i.n.) treatment with Hsp70 derived peptides C1 and its mouse homologue mC1a on PGIA 100 μg peptide in 10 μl PBS was administered on day −7, −5 and −3 before disease induction (see FIG. 28). Ovalbumin peptide (pOva) was used as a control peptide. PGIA was induced by two times i.p. injection with 300 μg hPG and 2 mg DDA in 200 μl PBS. Subsequently developed arthritis scores were assessed by clinical evaluation. • Group A: (pOva): Treated with 100 μg pOva in 10 μl PBS intranasally • Group B (C1): Treated with 100 μg C1 in 10 μl PBS intranasally • Group C (mC1a): Treated with 100 μg mC1a in 10 μl PBS intranasally

[3] = test system: synovial fluid mononuclear cells (SFMC); experiment: Peptide-specific response of SFMC (intracellular staining and FACS); type: cell-based, human; conditions: eight days culture with peptide, 6 hour restimulation
Experimental: Peptide-specific response of SFMC was measured by intracellular staining and FACS analysis. Therefore, cells were cultured in the presence of the peptide as described for PBMC. After 96 hours 100 μl of the medium was replaced by fresh culture medium and 40 IU/ml IL-2 was added. At day eight, cells were spun down, medium was aspirated and 200 μl new medium with fresh irradiated APC of the same donor was added (7.5*10^5 irradiated at 3500 rad) During 6 hours cells were cultured with or without the peptides and addition of the costimulatory mAbs CD28 and CD49 (0.5 μg/ml each) at 37° C. In the last 4 hours Golgistop (BD Biosciences) was added. Harvested cells were washed and surface stained as described previously […] with anti-CD3-Peridinin-chlorophyll-protein Complex (PerCP), anti-CD4-allophycocyanin (APC) and anti-CD69-fluorescein isothiocyanate (FITC) and subsequently fixed in Cytofix/cytoperm solution (BD Biosciences) followed by intracellular staining with phycoerythrin (PE) conjugated mAbs against either IL-10, IFNγ or TNFα. All antibodies were obtained from Becton Dickinson. Data are expressed as % positive cells of the CD3^+CD4^+ population.

[4] = test system: PBMC isolated from the blood of healthy donors; experiment: Peptide-specific proliferation of human PBMC; type: cell-based; conditions: peptides at 20 μg/ml for 96 hours; compared to A5 control peptide
Source text: Peptide specific responses were studied in mononuclear cells obtained from the blood of healthy controls or the synovial fluid of a JIA and a RA patient. The patients were visiting the outpatient clinic of the departments of Rheumatology & Clinical Immunology and Pediatrics of the University Medical Center Utrecht (Utrecht, The Netherlands). The RA patient fulfilled diagnostic criteria of the American College of Rheumatology criteria for RA […]. Cells were isolated by ficoll (Pharmacia, Uppsala, Sweden) density gradient centrifugation of heparinized blood or synovial fluid and cultured in RPMI 1640 supplemented with 2 mmol/L glutamine, 100 U/ml penicillin and streptomycin (Gibco BRL, Gaithersburg, Md. USA) and 10% AB-positive heat-inactivated human serum (Sanquin Blood Bank, Utrecht, the Netherlands) in 96 wells round bottom plates (Nunc, Roskilde, Denmark) at 2*10^5 cells in 200 μl per well. Cultures were in triplicate stimulated with peptides at 20 μg/ml for 96 hours at 37° C. in 5% CO2 with 100% relative humidity. For determination of peptide-specific proliferation of PBMC, during the last 16 hours 1 μC1 (37 kBq) [^3H]-thymidine was added to each well and incorporation was measured. Data are expressed as stimulation index calculated as mean CPM of cells cultured with peptide divided by mean CPM of cells cultured without peptide.

adjuvant arthritis = conditions: in vivo; cited from earlier work
arthritis = conditions: cited from earlier work
[5] = Example 11: 100 μg intranasally on day −7, −5 and −3

In the case of “DEVVAVGAALQAGVL (listed as Mycobacterium tuberculosis) [B1, pool B (conserved)]”, the “Cross-reactivity of bacterially primed T-cells with mouse homologue peptide” value (from here on “Cross-reactivity … with mouse homologue peptide”) [1] is reported as “induced cross reactive T cell responses and yes” and the “disease severity (arthritis score)” value ([2]; Example 9: 100 μg intranasally on day −7, −5 and −3) is reported as “reduction of disease severity”.
With “KPFQSVIADTGISVS (listed as Mycobacterium tuberculosis) [A1, pool A (not conserved)]” the “Cross-reactivity … with mouse homologue peptide” value [1] was “no”.
In the case of “VLRIINEPTAAAIAY (listed as Mus musculus) [mC1b, mouse hsp70 (hspa1a/hspa8) peptide, mouse homologue of C1]”, the “production of IL-10, IFNγ and TNFα in the CD3+CD4+ population” value [3] is reported as “increased the production of IL-10, IFNγ and TNFα”, the “surface expression of CD69 in the CD3+CD4+ population” value [3] is reported as “increased” and the “peptide-specific proliferation (stimulation index, [3H] thymidine incorporation)” value [4] is reported as “increased proliferation of PBMC; also recorded: significantly increased the proliferation”.
In the case of “peptide 234-252: peptide 234-252 of Mycobacterial HSP70 (Tanaka et al. 1999) (LREAAEKAKIELSSSQSTS; UniProt P9WMJ9 234-252, looked up, fragment)”, the IL-10 production (adjuvant arthritis) is listed as “induces IL-10 production” and the “development of adjuvant arthritis” value (adjuvant arthritis) is listed as “suppresses the development of adjuvant arthritis”.
In the case of “peptide 111-125: synthetic 15-mer peptide of mycobacterial HSP70, amino acids 111-125 (Wendling et al. 2000) (ITDAVITTPAYFNDA; UniProt P9WMJ9 111-125, looked up, fragment)”, the arthritis (arthritis; nasal administration) is given as “significant reduction of arthritis” and the arthritis development (arthritis; parenteral pre-immunization) is given as “did not protect against arthritis development”.
For “amino acids 84-103: another peptide of Mycobacterial HSP70, amino acids 84-103 (Tanaka et al. 1999) (KKYTAPEISARILMKLKRDA; UniProt P9WMJ9 84-103, looked up, fragment)”, the “development of adjuvant arthritis” value (adjuvant arthritis) is listed as “does not suppress adjuvant arthritis development”.
With “VLRVINEPTAAALAY (listed as Mus musculus) [mC1a, mouse Grp75 (hspa9a) peptide 216-230, mouse homologue of C1]” the “disease activity (arthritis score)” value ([2]; Example 10: 100 μg intranasally on day −14, −11, −7 and −4) was “suppressed disease activity” and the “disease activity (arthritis score)” value [2, 5] was “significant reduction of disease activity”.
In the case of “VLRIVNEPTAAALAY (listed as Mycobacterium tuberculosis) [C1]”, the “Cross-reactivity … with mouse homologue peptide” value [1] is reported as “induced cross reactive T cell responses and yes”, the “production of IL-10, IFNγ and TNFα in the CD3+CD4+ population” value [3] is reported as “increased CD69 and cytokine expression” and the “surface expression of CD69 in the CD3+CD4+ population” value [3] is reported as “increased CD69 and cytokine expression”. For the same substance, the “disease activity (arthritis score)” value [2, 5] was “significant reduction of disease activity”.
